The source of these data is US7750020B2, “Sulfonamide-thiazolpyridine derivatives as glucokinase activators useful the treatment of Type 2 diabetes” (Novartis AG, priority 2004, dated 2010).

One data set deals with T1, recombinant GST-GK (Homo sapiens, UniProt P35557).
T1 sequence (P35557 1-465): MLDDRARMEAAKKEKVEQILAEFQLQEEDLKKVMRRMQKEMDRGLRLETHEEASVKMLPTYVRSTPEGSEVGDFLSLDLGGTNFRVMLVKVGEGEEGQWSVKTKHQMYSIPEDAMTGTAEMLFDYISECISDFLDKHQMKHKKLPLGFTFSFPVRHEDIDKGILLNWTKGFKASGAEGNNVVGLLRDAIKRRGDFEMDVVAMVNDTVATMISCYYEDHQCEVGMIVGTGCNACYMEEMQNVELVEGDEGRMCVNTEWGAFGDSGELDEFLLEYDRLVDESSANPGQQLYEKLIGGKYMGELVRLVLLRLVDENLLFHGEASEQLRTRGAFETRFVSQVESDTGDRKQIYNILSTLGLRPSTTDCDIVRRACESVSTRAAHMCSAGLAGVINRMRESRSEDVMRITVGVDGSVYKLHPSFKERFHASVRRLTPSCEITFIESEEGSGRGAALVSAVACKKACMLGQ
The data set is described as follows: in vitro assay measuring the activation of recombinant GST-GK. In kind it is biochemical. The source says:
The glucokinase activation in vitro may be determined by measuring the activation of recombinant GST-GK by a compound of the present invention in the absence or the presence of GKRP, a 68,000 Da protein inhibitor of GK. In these assays, formation of glucose-6-phosphate is coupled directly to the formation of thioNADH. GST-GK catalyzes the reaction of glucose and Mg-ATP to produce glucose-6-phosphate and ADP. Glucose-6-phosphate dehydrogenase (G6PDH) reduces thionicotinamide (thioNAD) to thioNADH. The assay measures the formation of […] at 405 nM.
The basic GK assay components are as follows: 25 mM HEPES (pH 7.1), 25 mM KCl, 2.5 mM MgCl2, 1 mM ATP (Sigma A-5394), 1 mM DTT, 1 mM thioNAD (Sigma T-7375), 80 units/mL G6PDH (Sigma G-5885), 10 mM glucose and […] GST-GK (110 nM). For assessing reversal of GK inhibition by GKRP, 20 μM Fructose-1-phosphate ([…]) and 25 μg/mL of recombinant GKRP (370 nM) are added to these assay components. F-1-P at 1 μM is used as a control in the GK/GKRP assay. F-1-P reverses inhibition of GST-GK by GKRP.
The assay is done in standard, 96-well, round-bottom plates and the total assay volume is 25 μL. […] The plates are then delivered via the Zymark XP arm to a Thermomax plate reader and read kinetically over three min at 405 nM at RT. Units are expressed as milli-optical density per minute (mOD/min).
As a reminder, the EC50 is the concentration giving half of the maximal effect. For the compound `COc1ccc2nc(NC(=O)C(CC3CCCC3)c3ccc(S(=O)(=O)N4CCN(C)CC4)cc3)sc2n1` (stereo not shown) [Example 1, 3-Cyclopentyl-N-(5-methoxy-thiazolo[5,4-b]pyridin-2-yl)-2-[4-(4-methyl-piperazine-1-sulfonyl)-phenyl]-propionamide], the EC50 is around 0.251 µM.

Test system in a further data set: not given
Assay: not given
By melting point is commonly meant the temperature, or range, at which the solid turns liquid. `COc1ccc2nc(NC(=O)C(CC3CCCC3)c3ccc(S(=O)(=O)NC4CC4)cc3)sc2n1` (stereo not shown) [Example 4, 3-Cyclopentyl-2-(4-cyclopropylsulfamoyl-phenyl)-N-(5-methoxy-thiazolo[5,4-b]pyridin-2-yl)-propionamide] gave a melting point of 235 to 237 °C.
Still for that read-out and setting: as for `COCCNS(=O)(=O)c1ccc(C(CC2CCCC2)C(=O)Nc2nc3ccc(OC)nc3s2)cc1` (stereo not shown) [Example 5, 3-Cyclopentyl-2-[4-(2-methoxy-ethylsulfamoyl)-phenyl]-N-(5-methoxy-thiazolo[5,4-b]pyridin-2-yl)-propionamide], the figure is 209 to 211 °C; as for `COc1cccc(CNS(=O)(=O)c2ccc(C(CC3CCCC3)C(=O)Nc3nc4ccc(OC)nc4s3)cc2)c1` (stereo not shown) [Example 6, 3-Cyclopentyl-2-[4-(3-methoxy-benzylsulfamoyl)-phenyl]-N-(5-methoxy-thiazolo[5,4-b]pyridin-2-yl)-propionamide], 179 to 181 °C.
Regarding `COc1ccc2nc(NC(=O)C(CC3CCCC3)c3ccc(S(=O)(=O)Nc4ccccc4)cc3)sc2n1` (stereo not shown) [Example 7, 3-Cyclopentyl-N-(5-methoxy-thiazolo[5,4-b]pyridin-2-yl)-2-(4-phenylsulfamoyl-phenyl)-propionamide], the melting point was 223 to 226 °C.
For the compound `COc1ccc2nc(NC(=O)C(CC3CCCC3)c3ccc(S(=O)(=O)N(C(C)C)C(C)C)cc3)sc2n1` (stereo not shown) [Example 9, 3-Cyclopentyl-2-(4-diisopropylsulfamoyl-phenyl)-N-(5-methoxy-thiazolo[5,4-b]pyridin-2-yl)-propionamide], the melting point was 83 to 85 °C.
For `COc1ccc2nc(NC(=O)C(CC3CCCC3)c3ccc(S(=O)(=O)NCc4ccco4)cc3)sc2n1` (stereo not shown) [Example 10, 3-Cyclopentyl-2-{4-[(furan-2-ylmethyl)-sulfamoyl]-phenyl}-N-(5-methoxy-thiazolo[5,4-b]pyridin-2-yl)-propionamide], the melting point lay within 244 to 247 °C.
With `CCCN(c1ccccc1)S(=O)(=O)c1ccc(C(CC2CCCC2)C(=O)Nc2nc3ccc(OC)nc3s2)cc1` (stereo not shown) [Example 11, 3-Cyclopentyl-N-(5-methoxy-thiazolo[5,4-b]pyridin-2-yl)-2-[4-(phenyl-propyl-sulfamoyl)-phenyl]-propionamide], the melting point is 83 to 85 °C.
`COc1ccc2nc(NC(=O)C(CC3CCCC3)c3ccc(S(=O)(=O)N(C)C)cc3)sc2n1` (stereo not shown) [Example 12, 3-Cyclopentyl-2-(4-dimethylsulfamoyl-phenyl)-N-(5-methoxy-thiazolo[5,4-b]pyridin-2-yl)-propionamide] had a melting point of 229 to 234 °C.
Same read-out and setting: to `CCN(CC)S(=O)(=O)c1ccc(C(CC2CCCC2)C(=O)Nc2nc3ccc(OC)nc3s2)cc1` (stereo not shown) [Example 13, 3-Cyclopentyl-2-(4-diethylsulfamoyl-phenyl)-N-(5-methoxy-thiazolo[5,4-b]pyridin-2-yl)-propionamide] belongs 150 to 152 °C.
In turn, `CCCN(CCC)S(=O)(=O)c1ccc(C(CC2CCCC2)C(=O)Nc2nc3ccc(OC)nc3s2)cc1` (stereo not shown) [Example 14, 3-Cyclopentyl-2-(4-dipropylsulfamoyl-phenyl)-N-(5-methoxy-thiazolo[5,4-b]pyridin-2-yl)-propionamide] displayed a melting point of 64 to 66 °C.
In turn, `COc1ccc2nc(NC(=O)C(CC3CCCC3)c3ccc(S(=O)(=O)NCc4cccnc4)cc3)sc2n1` (stereo not shown) [Example 15, 3-Cyclopentyl-N-(5-methoxy-thiazolo[5,4-b]pyridin-2-yl)-2-{4-[(pyridin-3-ylmethyl)-sulfamoyl]-phenyl}-propionamide] returned a melting point of 227 to 229 °C.
Compound `COc1ccc2nc(NC(=O)C(CC3CCCC3)c3ccc(S(=O)(=O)N4CCCCC4)cc3)sc2n1` (stereo not shown) [Example 17, 3-Cyclopentyl-N-(5-methoxy-thiazolo[5,4-b]pyridin-2-yl)-2-[4-(piperidine-1-sulfonyl)-phenyl]-propionamide] displayed a melting point of 184 to 218 °C.
In turn, `COc1ccc2nc(NC(=O)C(CC3CCCC3)c3ccc(S(=O)(=O)N4CCOCC4)cc3)sc2n1` (stereo not shown) [Example 18, 3-Cyclopentyl-N-(5-methoxy-thiazolo[5,4-b]pyridin-2-yl)-2-[4-(morpholine-4-sulfonyl)-phenyl]-propionamide] had a melting point of 120 to 123 °C.
Compound `COc1ccc2nc(NC(=O)C(CC3CCCC3)c3ccc(S(=O)(=O)NCc4cccs4)cc3)sc2n1` (stereo not shown) [Example 19, 3-Cyclopentyl-N-(5-methoxy-thiazolo[5,4-b]pyridin-2-yl)-2-{4-[(thiophen-2-ylmethyl)-sulfamoyl]-phenyl}-propionamide] returned a melting point of 263 to 268 °C.
Turning to `COc1ccc2nc(NC(=O)C(CC3CCCC3)c3ccc(S(=O)(=O)Nc4cccnc4)cc3)sc2n1` (stereo not shown) [Example 20, 3-Cyclopentyl-N-(5-methoxy-thiazolo[5,4-b]pyridin-2-yl)-2-[4-(pyridin-3-ylsulfamoyl)-phenyl]-propionamide], the melting point lay within 125 to 127 °C.
Take `COc1ccc2nc(NC(=O)C(CC3CCCC3)c3ccc(S(=O)(=O)NCc4ccccc4F)cc3)sc2n1` (stereo not shown) [Example 21, 3-Cyclopentyl-2-[4-(2-fluoro-benzylsulfamoyl)-phenyl]-N-(5-methoxy-thiazolo[5,4-b]pyridin-2-yl)-propionamide]: the melting point is 238 to 240 °C.
As for `COc1ccc2nc(NC(=O)C(CC3CCCC3)c3ccc(S(=O)(=O)NCc4ccccc4)cc3)sc2n1` (stereo not shown) [Example 23, 2-(4-Benzylsulfamoyl-phenyl)-3-cyclopentyl-N-(5-methoxy-thiazolo[5,4-b]pyridin-2-yl)-propionamide], the melting point fell in the range of 237 to 240 °C.
The compound `COc1ccc2nc(NC(=O)C(CC3CCCC3)c3ccc(S(=O)(=O)N(C)Cc4ccccc4)cc3)sc2n1` (stereo not shown) [Example 24, 2-[4-(Benzyl-methyl-sulfamoyl)-phenyl]-3-cyclopentyl-N-(5-methoxy-thiazolo[5,4-b]pyridin-2-yl)-propionamide] registered a melting point of 206 to 208 °C.
Regarding `CCCCN(CCCC)S(=O)(=O)c1ccc(C(CC2CCCC2)C(=O)Nc2nc3ccc(OC)nc3s2)cc1` (stereo not shown) [Example 25, 3-Cyclopentyl-2-(4-dibutylsulfamoyl-phenyl)-N-(5-methoxy-thiazolo[5,4-b]pyridin-2-yl)-propionamide], the melting point was in the range of 65 to 67 °C.
On the same count and under the same terms, to `CCN1CCN(S(=O)(=O)c2ccc(C(CC3CCCC3)C(=O)Nc3nc4ccc(OC)nc4s3)cc2)CC1` (stereo not shown) [Example 26, 3-Cyclopentyl-2-[4-(4-ethyl-piperazine-1-sulfonyl)-phenyl]-N-(5-methoxy-thiazolo[5,4-b]pyridin-2-yl)-propionamide] belongs 106 to 110 °C; to `COc1ccc2nc(NC(=O)C(CC3CCCC3)c3ccc(S(=O)(=O)N4CCN(C(C)=O)CC4)cc3)sc2n1` (stereo not shown) [Example 27, 2-[4-(4-Acetyl-piperazine-1-sulfonyl)-phenyl]-3-cyclopentyl-N-(5-methoxy-thiazolo[5,4-b]pyridin-2-yl)-propionamide], 215 to 217 °C.
